Source: ChEMBL document CHEMBL1201862, “PubChem BioAssay data set” (2004)
Activity calls are given as the source filed them.

Assays:
[1] = molecular target: T1, Replicative DNA helicase DnaB (Mycobacterium tuberculosis, UniProt P9WMR3); assay: DnaB intein splicing inhibitors, dose response, biochemical, cell-free fluorescence (AID 449749); assay type: functional
T1 sequence (P9WMR3 whole entry): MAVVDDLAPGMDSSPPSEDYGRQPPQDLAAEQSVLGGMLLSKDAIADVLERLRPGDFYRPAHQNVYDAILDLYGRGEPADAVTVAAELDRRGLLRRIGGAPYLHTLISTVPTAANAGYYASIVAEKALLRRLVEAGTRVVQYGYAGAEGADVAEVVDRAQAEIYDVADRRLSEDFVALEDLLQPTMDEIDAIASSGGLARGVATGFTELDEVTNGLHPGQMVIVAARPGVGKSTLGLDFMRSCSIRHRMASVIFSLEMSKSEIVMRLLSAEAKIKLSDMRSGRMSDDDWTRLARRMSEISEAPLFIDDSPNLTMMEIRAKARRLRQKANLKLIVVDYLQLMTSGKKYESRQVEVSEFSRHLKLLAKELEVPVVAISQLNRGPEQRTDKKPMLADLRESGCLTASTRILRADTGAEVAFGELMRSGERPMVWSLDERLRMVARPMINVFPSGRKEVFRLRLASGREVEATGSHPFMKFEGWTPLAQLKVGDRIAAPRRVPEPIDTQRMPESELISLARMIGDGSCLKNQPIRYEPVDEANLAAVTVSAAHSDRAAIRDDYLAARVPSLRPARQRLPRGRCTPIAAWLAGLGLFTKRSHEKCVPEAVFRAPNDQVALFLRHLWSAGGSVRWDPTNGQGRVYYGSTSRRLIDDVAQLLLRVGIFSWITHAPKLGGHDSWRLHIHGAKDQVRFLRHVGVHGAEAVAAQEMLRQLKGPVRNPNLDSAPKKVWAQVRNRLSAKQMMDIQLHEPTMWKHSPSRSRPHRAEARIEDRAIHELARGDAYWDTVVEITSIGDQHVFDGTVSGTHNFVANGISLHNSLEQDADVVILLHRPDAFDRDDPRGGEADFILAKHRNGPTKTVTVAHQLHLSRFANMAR

Protein RecA = molecular target: T2, Protein RecA (Mycobacterium tuberculosis, UniProt P9WHJ3); assay: Fluorescence Cell-Free Homogeneous Dose Retest to Identify Inhibitors of RecA-Intein Splicing Activity. [Related pubchem assays (depositor defined):AID2097, AID2223, AID489010, AID492950]; assay type: functional
T2 sequence (P9WHJ3 whole entry): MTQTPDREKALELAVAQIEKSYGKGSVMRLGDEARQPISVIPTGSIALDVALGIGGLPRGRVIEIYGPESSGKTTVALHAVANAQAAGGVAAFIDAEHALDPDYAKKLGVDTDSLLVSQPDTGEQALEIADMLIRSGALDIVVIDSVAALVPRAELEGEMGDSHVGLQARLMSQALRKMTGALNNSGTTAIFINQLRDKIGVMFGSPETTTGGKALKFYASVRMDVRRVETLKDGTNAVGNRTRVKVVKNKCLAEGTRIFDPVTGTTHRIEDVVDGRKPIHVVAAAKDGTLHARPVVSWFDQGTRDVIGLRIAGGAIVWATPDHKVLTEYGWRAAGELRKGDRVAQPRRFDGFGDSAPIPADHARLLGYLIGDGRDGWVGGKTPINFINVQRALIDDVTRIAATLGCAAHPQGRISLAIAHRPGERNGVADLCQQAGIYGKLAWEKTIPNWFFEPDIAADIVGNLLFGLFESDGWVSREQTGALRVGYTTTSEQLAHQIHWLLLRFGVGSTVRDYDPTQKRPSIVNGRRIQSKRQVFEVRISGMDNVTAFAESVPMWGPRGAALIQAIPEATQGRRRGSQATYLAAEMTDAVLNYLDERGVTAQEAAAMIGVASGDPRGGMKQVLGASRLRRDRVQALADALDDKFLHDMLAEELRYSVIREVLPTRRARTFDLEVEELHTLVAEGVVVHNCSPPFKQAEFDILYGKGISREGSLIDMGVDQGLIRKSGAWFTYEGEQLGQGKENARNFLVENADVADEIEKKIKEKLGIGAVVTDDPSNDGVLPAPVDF

Cytochrome P450 2D6 = Cytochrome P450 2D6 (Homo sapiens, UniProt P10635);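 note: CYP2D6 member of a cytochrome P450 panel assay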
Cytochrome P450 2D6, sequence (P10635 whole entry): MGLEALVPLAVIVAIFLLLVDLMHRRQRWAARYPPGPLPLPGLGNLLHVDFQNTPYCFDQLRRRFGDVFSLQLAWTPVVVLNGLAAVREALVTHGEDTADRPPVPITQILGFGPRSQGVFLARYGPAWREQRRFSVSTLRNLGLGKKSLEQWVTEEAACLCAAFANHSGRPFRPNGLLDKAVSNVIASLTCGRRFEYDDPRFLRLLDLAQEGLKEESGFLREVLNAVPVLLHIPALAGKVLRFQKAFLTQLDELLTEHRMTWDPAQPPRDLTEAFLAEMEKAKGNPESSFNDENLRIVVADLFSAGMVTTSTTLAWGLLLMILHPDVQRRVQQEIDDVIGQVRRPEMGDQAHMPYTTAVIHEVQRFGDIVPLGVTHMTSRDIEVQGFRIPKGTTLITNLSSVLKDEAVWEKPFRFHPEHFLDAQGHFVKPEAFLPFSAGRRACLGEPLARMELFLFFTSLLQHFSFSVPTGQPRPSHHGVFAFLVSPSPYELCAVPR

Cytochrome P450 2C9 = Cytochrome P450 2C9 (Homo sapiens, UniProt P11712)
Cytochrome P450 2C9, sequence (P11712 whole entry): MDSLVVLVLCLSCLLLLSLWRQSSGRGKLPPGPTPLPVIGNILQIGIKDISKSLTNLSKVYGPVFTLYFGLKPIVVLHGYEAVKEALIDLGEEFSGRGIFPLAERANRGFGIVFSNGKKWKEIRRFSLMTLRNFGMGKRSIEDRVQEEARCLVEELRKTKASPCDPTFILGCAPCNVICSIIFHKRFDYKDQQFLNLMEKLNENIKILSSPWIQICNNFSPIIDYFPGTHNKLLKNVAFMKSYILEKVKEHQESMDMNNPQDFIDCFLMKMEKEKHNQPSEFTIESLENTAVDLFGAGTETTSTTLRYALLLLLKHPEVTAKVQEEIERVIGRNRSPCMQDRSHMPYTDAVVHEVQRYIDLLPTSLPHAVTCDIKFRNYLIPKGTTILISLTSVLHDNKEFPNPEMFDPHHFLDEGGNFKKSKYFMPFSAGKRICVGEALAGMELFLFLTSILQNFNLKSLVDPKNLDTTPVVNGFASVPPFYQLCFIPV

Cytochrome P450 1A2 = molecular target: T3, Cytochrome P450 1A2 (Homo sapiens, UniProt P05177);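 note: PubChem cytochrome P450 panel assay, CYP1A2 panel member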
T3 sequence (P05177 whole entry): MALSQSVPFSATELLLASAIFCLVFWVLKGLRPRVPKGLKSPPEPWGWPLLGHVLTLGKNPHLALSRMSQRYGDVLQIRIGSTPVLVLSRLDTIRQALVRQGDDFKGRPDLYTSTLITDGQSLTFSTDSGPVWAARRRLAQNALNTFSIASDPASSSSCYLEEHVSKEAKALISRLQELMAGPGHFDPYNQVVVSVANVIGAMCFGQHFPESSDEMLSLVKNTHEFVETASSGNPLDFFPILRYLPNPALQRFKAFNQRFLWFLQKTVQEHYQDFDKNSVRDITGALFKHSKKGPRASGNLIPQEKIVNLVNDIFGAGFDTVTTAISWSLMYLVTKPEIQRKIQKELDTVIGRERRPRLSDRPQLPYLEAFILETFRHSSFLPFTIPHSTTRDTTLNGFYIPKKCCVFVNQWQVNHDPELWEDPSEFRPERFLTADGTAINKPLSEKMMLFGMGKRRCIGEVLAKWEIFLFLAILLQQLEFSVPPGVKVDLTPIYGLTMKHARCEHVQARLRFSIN

[2] = molecular target: T4, Polyadenylate-binding protein 1 (Homo sapiens, UniProt P11940); assay: MLLE domain peptide-binding blockers, IC50 – biochemical, fluorescence polarization, FITC-PAM2 peptide, dose response (AID 602259); assay type: functional; settings: read-out: IC50_Mean
T4 sequence (P11940 whole entry, the tested form may be a part): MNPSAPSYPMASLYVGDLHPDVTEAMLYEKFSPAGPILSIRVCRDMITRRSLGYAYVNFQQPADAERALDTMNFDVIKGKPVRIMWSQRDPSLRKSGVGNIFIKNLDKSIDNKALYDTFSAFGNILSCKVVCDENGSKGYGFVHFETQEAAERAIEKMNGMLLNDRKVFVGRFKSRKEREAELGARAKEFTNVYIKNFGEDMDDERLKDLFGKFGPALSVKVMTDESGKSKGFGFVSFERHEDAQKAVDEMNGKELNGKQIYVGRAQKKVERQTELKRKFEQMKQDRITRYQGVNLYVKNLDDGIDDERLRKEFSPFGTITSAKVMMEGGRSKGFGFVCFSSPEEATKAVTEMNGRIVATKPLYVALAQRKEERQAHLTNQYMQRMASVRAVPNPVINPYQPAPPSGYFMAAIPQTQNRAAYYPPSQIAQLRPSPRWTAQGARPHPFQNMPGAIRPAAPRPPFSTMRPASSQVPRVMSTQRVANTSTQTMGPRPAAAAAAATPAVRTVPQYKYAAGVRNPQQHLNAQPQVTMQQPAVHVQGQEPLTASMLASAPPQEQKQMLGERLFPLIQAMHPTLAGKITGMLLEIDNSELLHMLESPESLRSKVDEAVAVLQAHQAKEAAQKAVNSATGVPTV

[3] = molecular target: T4, Polyadenylate-binding protein 1; assay: MLLE binding blockers, Cy5 peptide tracer – biochemical, fluorescence polarization, Cy5-PAM2 peptide, secondary, miRNA deadenylation inhibitor project, dose response (AID 602260); assay type: functional; settings: read-out: IC50_Mean
Cytochrome P450 3A4 = Cytochrome P450 3A4 (Homo sapiens, UniProt P08684);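 note: CYP3A4 tested as one member of a cytochrome P450 panel screen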
Cytochrome P450 3A4, sequence (P08684 whole entry): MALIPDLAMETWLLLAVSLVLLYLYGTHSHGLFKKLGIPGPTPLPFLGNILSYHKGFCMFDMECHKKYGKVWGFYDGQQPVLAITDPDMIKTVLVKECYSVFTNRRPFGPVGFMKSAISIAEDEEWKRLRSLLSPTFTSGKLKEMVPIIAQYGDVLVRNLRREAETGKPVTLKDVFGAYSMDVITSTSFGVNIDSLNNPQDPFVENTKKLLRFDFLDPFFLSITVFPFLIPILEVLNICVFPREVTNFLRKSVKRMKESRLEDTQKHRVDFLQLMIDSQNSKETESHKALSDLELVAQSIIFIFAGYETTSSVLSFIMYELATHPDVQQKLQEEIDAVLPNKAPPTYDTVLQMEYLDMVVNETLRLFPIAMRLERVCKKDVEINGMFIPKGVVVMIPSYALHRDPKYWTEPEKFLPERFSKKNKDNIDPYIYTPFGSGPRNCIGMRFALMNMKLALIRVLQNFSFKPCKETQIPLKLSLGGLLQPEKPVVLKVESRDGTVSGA

Cytochrome P450 2C19 = Cytochrome P450 2C19 (Homo sapiens, UniProt P33261); assay: Cytochrome panel assay with activity outcomes. Panel member name: p450-cyp2c19 Compounds with AC50 equal or less than 10 uM are considered active; assay type: functional; settings: read-out: AC50
Cytochrome P450 2C19, sequence (P33261 whole entry): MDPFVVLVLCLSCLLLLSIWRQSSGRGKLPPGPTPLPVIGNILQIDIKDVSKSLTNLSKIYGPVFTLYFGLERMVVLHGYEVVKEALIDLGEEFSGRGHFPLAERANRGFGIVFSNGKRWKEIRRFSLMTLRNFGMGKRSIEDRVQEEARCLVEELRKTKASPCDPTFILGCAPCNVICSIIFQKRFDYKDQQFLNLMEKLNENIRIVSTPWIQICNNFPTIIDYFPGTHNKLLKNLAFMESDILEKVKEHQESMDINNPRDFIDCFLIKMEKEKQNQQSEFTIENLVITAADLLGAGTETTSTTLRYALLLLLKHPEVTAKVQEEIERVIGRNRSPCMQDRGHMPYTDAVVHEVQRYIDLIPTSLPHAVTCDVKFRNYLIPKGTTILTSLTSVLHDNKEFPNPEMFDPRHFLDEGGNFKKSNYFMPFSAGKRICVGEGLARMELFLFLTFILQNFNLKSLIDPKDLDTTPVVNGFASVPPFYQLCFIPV

[4] = molecular target: T5, Corticotropin-releasing factor receptor 2/Corticotropin-releasing factor-binding protein (Homo sapiens, UniProt P24387+Q13324); assay: activators of CRF receptor 2 with binding protein – uHTS hits, confirmation (AID 602473); assay type: functional; settings: read-out: EC50_Mean
T5 sequence (Q13324 whole entry): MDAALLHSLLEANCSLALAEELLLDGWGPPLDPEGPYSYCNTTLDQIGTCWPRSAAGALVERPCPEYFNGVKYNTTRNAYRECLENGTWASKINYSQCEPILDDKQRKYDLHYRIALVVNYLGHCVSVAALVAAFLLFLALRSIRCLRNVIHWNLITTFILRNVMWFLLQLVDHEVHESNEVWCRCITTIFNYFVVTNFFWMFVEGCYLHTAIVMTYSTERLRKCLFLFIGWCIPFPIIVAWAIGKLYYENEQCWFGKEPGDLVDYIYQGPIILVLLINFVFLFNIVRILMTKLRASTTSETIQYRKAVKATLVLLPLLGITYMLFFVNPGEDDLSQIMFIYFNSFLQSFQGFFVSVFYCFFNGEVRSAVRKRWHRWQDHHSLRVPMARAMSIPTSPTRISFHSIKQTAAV
T5 sequence (P24387 whole entry): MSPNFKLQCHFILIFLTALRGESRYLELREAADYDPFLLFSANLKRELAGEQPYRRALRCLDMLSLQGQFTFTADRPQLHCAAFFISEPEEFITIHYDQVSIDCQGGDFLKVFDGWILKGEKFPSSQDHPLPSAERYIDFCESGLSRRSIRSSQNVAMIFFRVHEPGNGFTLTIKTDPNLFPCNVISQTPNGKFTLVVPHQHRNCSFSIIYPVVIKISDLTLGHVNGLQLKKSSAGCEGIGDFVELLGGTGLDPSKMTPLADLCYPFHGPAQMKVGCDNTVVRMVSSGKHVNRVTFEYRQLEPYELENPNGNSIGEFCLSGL

COc1cccc(Nc2c([N+](=O)[O-])cncc2[N+](=O)[O-])c1
AC50 [1]: 12.9 µM (active) | EC50 (Protein RecA): 8.86 µM (active)

Cc1ccc(NC(=O)CSc2ncnc3ccccc23)cc1S(=O)(=O)N1CCCCCC1
AC50 [1]: 20.1 µM (active) | EC50 (Protein RecA): 2.66 µM (active)

O=C(CSc1ncnc2c1nnn2Cc1ccc(F)cc1)NCC1CCCO1 (stereo not given)
AC50 [1]: 14.3 µM (active) | EC50 (Protein RecA): 10.2 µM (active)

Nc1nc(NCCc2ccc(O)cc2)nc2nc(-c3ccco3)nn12 [ZM-241385]
AC50 (Cytochrome P450 2D6): 10 µM (inconclusive) | AC50 (Cytochrome P450 2C9): 39.8 µM (inconclusive) | AC50 (Cytochrome P450 1A2): 31.6 µM (inconclusive)

CCS(=O)(=O)C1=NN2C(=N)/C(=C\c3ccc(OC(=O)c4ccco4)cc3)C(=O)N=C2S1
AC50 [1]: > 380 µM (inactive) | EC50 (Protein RecA): 19.4 µM (active)

Cc1ccc(C(=O)NC(=S)NNS(=O)(=O)c2ccccc2)cc1
IC50 [2]: > 66 µM (inactive) | IC50 [3]: > 66 µM (inactive)

Cc1cc(O)nc(SCn2nnc3ccccc3c2=O)n1
IC50 [2]: > 66 µM (inactive) | IC50 [3]: > 66 µM (inactive)

Cc1ccccc1-c1nc(C[S+]([O-])CC(=O)N2CCC3(CC2)OCCO3)c(C)o1 (stereo not given)
AC50 (Cytochrome P450 2D6): 25.1 µM (inconclusive) | AC50 (Cytochrome P450 1A2): 25.1 µM (inconclusive)

CN(Cc1ccco1)c1ncncc1-c1ccoc1
AC50 (Cytochrome P450 2D6): 39.8 µM (inconclusive) | AC50 (Cytochrome P450 3A4): 3.16 µM (inconclusive) | AC50 (Cytochrome P450 2C19): 39.8 µM (inconclusive)

CC(N=C(S)Nc1ccccc1C(F)(F)F)C1CC2CCC1C2 (stereo not given)
IC50 [2]: > 66 µM (inactive) | IC50 [3]: > 66 µM (inactive)

CN(C)/C=N/c1ccc2nn(-c3ccccc3)nc2c1
AC50 (Cytochrome P450 2D6): 25.1 µM (inconclusive) | AC50 (Cytochrome P450 2C9): 15.8 µM (inconclusive)

COc1ccc(CCN(C)Cc2ccc(OCc3ccccc3)c(OC)c2)cc1OC
AC50 (Cytochrome P450 2D6): 14.1 µM (inconclusive) | AC50 (Cytochrome P450 2C9): 15.8 µM (inconclusive) | AC50 (Cytochrome P450 1A2): 39.8 µM (inconclusive)

CCOc1ccc(-n2c(C)nc3cc(C(=O)NCc4ccco4)ccc32)cc1
AC50 (Cytochrome P450 2D6): 11.2 µM (inconclusive) | AC50 (Cytochrome P450 1A2): 25.1 µM (inconclusive)

CN(C1CCCCC1)S(=O)(=O)c1ccc(S)nc1
IC50 [2]: > 66 µM (inactive) | IC50 [3]: > 66 µM (inactive)

COc1ccccc1CNc1cc(-c2ccccc2C)ncn1
AC50 (Cytochrome P450 2D6): 15.8 µM (inconclusive) | AC50 (Cytochrome P450 3A4): 31.6 µM (inconclusive)

COC(=O)c1c(C)oc2ccc(N(C(=O)c3ccncc3)S(=O)(=O)c3ccccc3)cc12
AC50 (Cytochrome P450 2D6): 0.0355 µM (inconclusive)

O=C(N/N=C\c1ccc(-c2ccccc2[N+](=O)[O-])o1)C1COc2ccccc2O1 (stereo not given)
AC50 [1]: 7.94 µM (active) | EC50 (Protein RecA): 12.4 µM (active)

O=Cc1c(N2CCN(CCO)CC2)nc2ccccn2c1=O
IC50 [2]: > 66 µM (inactive) | EC50 [4]: > 53 µM (inactive) | IC50 [3]: > 66 µM (inactive)

Cn1cccc1C(=O)N1CCC2(CCCN(c3ccccn3)C2)CC1
AC50 (Cytochrome P450 2D6): 25.1 µM (inconclusive) | AC50 (Cytochrome P450 3A4): 20 µM (inconclusive) | AC50 (Cytochrome P450 2C9): 25.1 µM (inconclusive) | AC50 (Cytochrome P450 1A2): 20 µM (inconclusive)

O=[N+]([O-])/C=C\c1cc2ccccc2[nH]1
AC50 (Cytochrome P450 2D6): 5.01 µM (inconclusive) | AC50 (Cytochrome P450 2C19): 5.01 µM (inconclusive)

COc1cccc(N2CC(C(=O)Nc3nnc(SCC(=O)c4ccccc4)s3)CC2=O)c1 (stereo not given)
AC50 [1]: 181 µM (active) | EC50 (Protein RecA): > 380 µM (inactive)

Cc1ccc(C(=O)NC(=S)Nc2cccc(-c3nc4ccccc4s3)c2)cc1
IC50 [2]: > 66 µM (inactive) | IC50 [3]: > 66 µM (inactive)

Cc1n[nH]c2c1C(c1cnn(C)c1)C(C#N)=C(N)O2 (stereo not given)
AC50 [1]: 14.2 µM (active) | EC50 (Protein RecA): 3.67 µM (active)

COc1ccc(CCC(C)Nc2cccc(F)c2)cc1 (stereo not given)
AC50 (Cytochrome P450 2D6): 10 µM (inconclusive)

CC1(C)CC2(C)OC(=N)C1(C#N)C2(C#N)C#N (stereo not given)
AC50 [1]: 70.3 µM (active) | EC50 (Protein RecA): 12.3 µM (active)

Cc1cc(C)n(N=C(S)NC2CCCCC2)c(=O)c1C#N
IC50 [2]: > 66 µM (inactive) | IC50 [3]: > 66 µM (inactive)

CN(C)c1ncc2nc(CCc3ccccc3)c(=O)n(Cc3ccc(F)cc3)c2n1
AC50 (Cytochrome P450 2D6): 25.1 µM (inconclusive) | AC50 (Cytochrome P450 3A4): 3.98 µM (inconclusive)

CCN(CC(=O)NCc1ccc(Cl)cc1)C(=O)CNS(=O)(=O)c1ccc(NC(C)=O)cc1
IC50 [2]: > 66 µM (inactive) | IC50 [3]: > 66 µM (inactive)

Cc1noc(C)c1CSCC(=O)Oc1ccc(N(C)S(=O)(=O)c2ccccc2)cc1
AC50 [1]: 4.1 µM (active) | EC50 (Protein RecA): 22.3 µM (active)

O=C(c1cc(C(F)(F)F)cc(C(F)(F)F)c1)N1CCC2(CC1)CN(c1ccccn1)C2
AC50 (Cytochrome P450 2D6): 12.6 µM (inconclusive)

CCN1CCc2c(C#N)c(N3CCOCC3)nc(NCCO)c2C1
IC50 [2]: > 66 µM (inactive) | IC50 [3]: > 66 µM (inactive)
